{"source": "paper PMC10377574", "about": "“Preclinical Characterization of a Stabilized Gastrin-Releasing Peptide Receptor Antagonist for Targeted Cancer Theranostics” (Biomolecules, 2023)", "key": {"[1]": {"settings": "mouse, in vivo", "experimental": "(§1) Pills were ground to a fine powder in a mortar, divided, and suspended in tab water to individual 12 mg/200 mL doses of pill per animal administered per os (Entresto® group) [35].\n(§2) The in vivo stability was determined in healthy male Swiss albino mice (12 mice in total, body weights 30 ± 5 g). Briefly, each radiolabeled peptide was injected as a bolus (100 μL, 11–22 MBq, 3 nmol of total peptide in saline/EtOH 9/1 v/v) in the tail vein of mice either untreated (controls) or 20 min after having received per os a slurry of an Entresto® pill (individual 12 mg/200 mL doses of pill per animal; Entresto®-group; Novartis, Basel, Switzerland), as previously described [34, 35]. Blood was collected 5 min post-injection (pi) in a chilled syringe directly from the heart (0.5–1 mL) and samples were processed prior to being analyzed by HPLC for the detection of forming radiometabolites, as previously described [25, 35]. For analyses, an XBridge Shield RP18 (5 μm, 4.6 mm × 20 mm) column (Waters, Vienna, Austria) was eluted at a flow rate of 1 mL/min with 0.1% TFA in H2O (A) and MeCN (B) with the following linear gradient system: 100%A/0%B at 0 min, with B linearly increasing by 1%/min to 60%A/40%B (system 2)."}, "in vivo": {"assay": "in vivo", "settings": "Balb/c nu/nu, mouse, iv, 40 pmol, total radioactivity", "experimental": "(§3) Biodistribution was conducted in Balb/c nu/nu mice (Scanbur A/S, Stockholm, Sweden), implanted subcutaneously in their flanks with PC-3 cells (6 × 10^6 cells/mouse) 3–4 weeks before the study. […] Biodistributions were conducted at 1 h pi for both control groups."}, "[2]": {"assay": "Biodistribution in negative control mice bearing DU-145 tumors", "assay_type": "in vivo", "settings": "Balb/c nu/nu, mouse, iv, 40 pmol, total radioactivity, 1 h pi, n = 4", "experimental": "as §3"}, "[3]": {"assay": "Biodistribution in mice bearing PC-3 tumors", "settings": "Balb/c nu/nu, mouse, iv, total radioactivity, n = 4; for tissue uptake at 1 h: 1 h pi; for tissue uptake at 4 h: 4 h pi; for tissue uptake at 24 h: 24 h pi", "experimental": "as §3"}, "[4]": {"system": "PC-3 tumors (GRPR-positive)", "assay": "Biodistribution in mice bearing PC-3 tumors", "settings": "1 h pi, n = 4", "experimental": "as §3"}, "[5]": {"assay": "In vivo metabolic stability in peripheral mice blood, HPLC", "settings": "5 min pi", "experimental": "as §1, §2"}, "[6]": {"assay": "Radiometal complex stability (PBS, EDTA challenge, human serum), ITLC", "settings": "1 h at 37 °C, n = 3", "experimental": "The radiochemical stability to transchelation was assessed by incubation of the radiolabeled peptide either with 1000× molar excess of EDTA or by incubation in human serum for 1 h at 37 °C. Incubation of radiolabeled peptide in PBS was used as control. The leakage of radiometal from the radiometal-chelate was determined with ITLC."}, "[7]": {"settings": "PC-3 tumor, 40 pmol, Tumor (PC-3) uptake"}, "[8]": {"settings": "kidneys, 40 pmol, Kidneys uptake"}, "[9]": {"settings": "pancreas, 40 pmol, Pancreas uptake"}, "[10]": {"settings": "small intestine, 40 pmol, Small intestine uptake"}}, "data": [{"smiles": "CC(C)C[C@H](NC(=O)C[C@H](O)[C@H](CC(C)C)NC(=O)[C@H](Cc1c[nH]cn1)NC(=O)CNC(=O)[C@@H](NC(=O)[C@H](C)NC(=O)[C@H](Cc1c[nH]c2ccccc12)NC(=O)[C@H](CCC(N)=O)NC(=O)[C@@H](Cc1ccccc1)NC(=O)COCCOCCNC(=O)CCC(C(=O)O)N1CCN(CC(=O)O)CCN(CC(=O)O)CCN(CC(=O)O)CC1)C(C)C)C(N)=O", "note": "(mixture of isomers) [[^111In]In-DOTAGA-PEG2-RM26, metal not drawn]", "values": [{"measurement": "% degraded in peripheral mice blood", "setting": "[1]", "result": "about 30%"}, {"measurement": "tissue uptake at 1 h", "setting": "in vivo; Blood uptake", "result": "0.5 ± 0.3", "unit": "%ID/g"}, {"measurement": "tissue uptake at 4 h", "setting": "in vivo; Blood uptake", "result": "0.07 ± 0.01", "unit": "%ID/g"}, {"measurement": "tissue uptake at 24 h", "setting": "in vivo; Blood uptake", "result": "0.015 ± 0.003", "unit": "%ID/g"}, {"measurement": "tissue uptake at 1 h", "setting": "in vivo; Bone uptake", "result": "0.13 ± 0.08", "unit": "%ID/g"}, {"measurement": "tissue uptake at 4 h", "setting": "in vivo; Bone uptake", "result": "0.07 ± 0.04", "unit": "%ID/g"}, {"measurement": "tissue uptake at 24 h", "setting": "in vivo; Bone uptake", "result": "0.04 ± 0.03", "unit": "%ID/g"}, {"measurement": "tissue uptake at 1 h", "setting": "in vivo; Kidneys uptake", "result": "4.6 ± 0.9", "unit": "%ID/g"}, {"measurement": "tissue uptake at 4 h", "setting": "in vivo; Kidneys uptake", "result": "3.5 ± 0.7", "unit": "%ID/g"}, {"measurement": "tissue uptake at 24 h", "setting": "in vivo; Kidneys uptake", "result": "2 ± 0.5", "unit": "%ID/g"}, {"measurement": "tissue uptake at 1 h", "setting": "in vivo; Liver uptake", "result": "0.5 ± 0.1", "unit": "%ID/g"}, {"measurement": "tissue uptake at 4 h", "setting": "in vivo; Liver uptake", "result": "0.23 ± 0.05", "unit": "%ID/g"}, {"measurement": "tissue uptake at 24 h", "setting": "in vivo; Liver uptake", "result": "0.16 ± 0.02", "unit": "%ID/g"}, {"measurement": "tissue uptake at 1 h", "setting": "in vivo; Lungs uptake", "result": "0.5 ± 0.2", "unit": "%ID/g"}, {"measurement": "tissue uptake at 4 h", "setting": "in vivo; Lungs uptake", "result": "0.11 ± 0.02", "unit": "%ID/g"}, {"measurement": "tissue uptake at 24 h", "setting": "in vivo; Lungs uptake", "result": "0.04 ± 0.01", "unit": "%ID/g"}, {"measurement": "tissue uptake at 1 h", "setting": "in vivo; Muscle uptake", "result": "0.11 ± 0.08", "unit": "%ID/g"}, {"measurement": "tissue uptake at 4 h", "setting": "in vivo; Muscle uptake", "result": "0.04 ± 0.01", "unit": "%ID/g"}, {"measurement": "tissue uptake at 24 h", "setting": "in vivo; Muscle uptake", "result": "0.01 ± 0.01", "unit": "%ID/g"}, {"measurement": "tissue uptake at 1 h", "setting": "in vivo; Pancreas uptake", "result": "1.9 ± 1", "unit": "%ID/g"}, {"measurement": "tissue uptake at 4 h", "setting": "in vivo; Pancreas uptake", "result": "0.18 ± 0.04", "unit": "%ID/g"}, {"measurement": "tissue uptake at 24 h", "setting": "in vivo; Pancreas uptake", "result": "0.03 ± 0.01", "unit": "%ID/g"}, {"measurement": "tissue uptake at 1 h", "setting": "in vivo; Small intestine uptake", "result": "0.8 ± 0.2", "unit": "%ID/g"}, {"measurement": "tissue uptake at 4 h", "setting": "in vivo; Small intestine uptake", "result": "0.13 ± 0.04", "unit": "%ID/g"}, {"measurement": "tissue uptake at 24 h", "setting": "in vivo; Small intestine uptake", "result": "0.05 ± 0.05", "unit": "%ID/g"}, {"measurement": "tissue uptake at 1 h", "setting": "in vivo; Spleen uptake", "result": "0.21 ± 0.06", "unit": "%ID/g"}, {"measurement": "tissue uptake at 4 h", "setting": "in vivo; Spleen uptake", "result": "0.1 ± 0.02", "unit": "%ID/g"}, {"measurement": "tissue uptake at 24 h", "setting": "in vivo; Spleen uptake", "result": "0.1 ± 0.03", "unit": "%ID/g"}, {"measurement": "tissue uptake at 1 h", "setting": "in vivo; Tumor (PC-3) uptake", "result": "6 ± 0.4", "unit": "%ID/g"}, {"measurement": "tissue uptake at 4 h", "setting": "in vivo; Tumor (PC-3) uptake", "result": "3 ± 1", "unit": "%ID/g"}, {"measurement": "tissue uptake at 24 h", "setting": "in vivo; Tumor (PC-3) uptake", "result": "1.2 ± 0.4", "unit": "%ID/g"}]}, {"smiles": "CC(C)C[C@H](NC(=O)C[C@H](O)[C@H](CC(C)C)NC(=O)[C@H](Cc1c[nH]cn1)NC(=O)CN(C)C(=O)[C@@H](NC(=O)[C@H](C)NC(=O)[C@H](Cc1c[nH]c2ccccc12)NC(=O)[C@H](CCC(N)=O)NC(=O)[C@@H](Cc1ccccc1)NC(=O)COCCOCCNC(=O)CCC(C(=O)O)N1CCN(CC(=O)O)CCN(CC(=O)O)CCN(CC(=O)O)CC1)C(C)C)C(N)=O", "note": "(mixture of isomers) [[^111In]In-AU-RM26-M1, [^111In]In-DOTAGA-PEG2-(Sar^11)RM26, metal not drawn]", "values": [{"measurement": "tissue uptake at 1 h", "setting": "[2]; DU-145 tumor, read-out: uptake in DU-145 tumors (GRPR-negative)", "result": "0.9 ± 0.2", "unit": "%ID/g"}, {"measurement": "tissue uptake at 1 h", "setting": "[2]; pancreas, DU-145 tumor-bearing mice, read-out: pancreas uptake, negative control group", "result": "2.2 ± 0.7", "unit": "%ID/g"}, {"measurement": "tissue uptake at 1 h", "setting": "[3]; [7]", "result": "7 ± 0.7", "unit": "%ID/g"}, {"measurement": "tissue uptake at 4 h", "setting": "[3]; [7]", "result": "5.7 ± 1.8", "unit": "%ID/g"}, {"measurement": "tissue uptake at 24 h", "setting": "[3]; [7]", "result": "1.8 ± 0.6", "unit": "%ID/g"}, {"measurement": "tissue uptake at 1 h", "setting": "[3]; PC-3 tumor, with unlabeled NOTA-PEG2-RM26, 5 nmol (in vivo GRPR blocking), PC-3 tumor uptake, GRPR-blocking group, excess unlabeled NOTA-PEG2-RM26 (5 nmol)", "result": "0.9 ± 0.6", "unit": "%ID/g"}, {"measurement": "tissue uptake at 1 h", "setting": "[3]; blood, 40 pmol, Blood uptake", "result": "0.6 ± 0.1", "unit": "%ID/g"}, {"measurement": "tissue uptake at 4 h", "setting": "[3]; blood, 40 pmol, Blood uptake", "result": "0.11 ± 0.07", "unit": "%ID/g"}, {"measurement": "tissue uptake at 24 h", "setting": "[3]; blood, 40 pmol, Blood uptake", "result": "0.02 ± 0.01", "unit": "%ID/g"}, {"measurement": "tissue uptake at 1 h", "setting": "[3]; bone, 40 pmol, Bone uptake", "result": "0.17 ± 0.09", "unit": "%ID/g"}, {"measurement": "tissue uptake at 4 h", "setting": "[3]; bone, 40 pmol, Bone uptake", "result": "0.09 ± 0.03", "unit": "%ID/g"}, {"measurement": "tissue uptake at 24 h", "setting": "[3]; bone, 40 pmol, Bone uptake", "result": "0.06 ± 0.03", "unit": "%ID/g"}, {"measurement": "tissue uptake at 1 h", "setting": "[3]; [8]", "result": "7.2 ± 0.9", "unit": "%ID/g"}, {"measurement": "tissue uptake at 4 h", "setting": "[3]; [8]", "result": "6 ± 1", "unit": "%ID/g"}, {"measurement": "tissue uptake at 24 h", "setting": "[3]; [8]", "result": "3 ± 0.9", "unit": "%ID/g"}, {"measurement": "tissue uptake at 1 h", "setting": "[3]; liver, 40 pmol, Liver uptake", "result": "0.55 ± 0.04", "unit": "%ID/g"}, {"measurement": "tissue uptake at 4 h", "setting": "[3]; liver, 40 pmol, Liver uptake", "result": "0.24 ± 0.02", "unit": "%ID/g"}, {"measurement": "tissue uptake at 24 h", "setting": "[3]; liver, 40 pmol, Liver uptake", "result": "0.1 ± 0.03", "unit": "%ID/g"}, {"measurement": "tissue uptake at 1 h", "setting": "[3]; lungs, 40 pmol, Lungs uptake", "result": "0.46 ± 0.09", "unit": "%ID/g"}, {"measurement": "tissue uptake at 4 h", "setting": "[3]; lungs, 40 pmol, Lungs uptake", "result": "0.17 ± 0.06", "unit": "%ID/g"}, {"measurement": "tissue uptake at 24 h", "setting": "[3]; lungs, 40 pmol, Lungs uptake", "result": "0.03 ± 0.03", "unit": "%ID/g"}, {"measurement": "tissue uptake at 1 h", "setting": "[3]; muscle, 40 pmol, Muscle uptake", "result": "0.15 ± 0.08", "unit": "%ID/g"}, {"measurement": "tissue uptake at 4 h", "setting": "[3]; muscle, 40 pmol, Muscle uptake", "result": "0.13 ± 0.05", "unit": "%ID/g"}, {"measurement": "tissue uptake at 24 h", "setting": "[3]; muscle, 40 pmol, Muscle uptake", "result": "0.01 ± 0.01", "unit": "%ID/g"}, {"measurement": "tissue uptake at 1 h", "setting": "[3]; [9]", "result": "2.2 ± 0.6", "unit": "%ID/g"}, {"measurement": "tissue uptake at 4 h", "setting": "[3]; [9]", "result": "0.29 ± 0.02", "unit": "%ID/g"}, {"measurement": "tissue uptake at 24 h", "setting": "[3]; [9]", "result": "0.03 ± 0.01", "unit": "%ID/g"}, {"measurement": "tissue uptake at 1 h", "setting": "[3]; pancreas, with unlabeled NOTA-PEG2-RM26, 5 nmol (in vivo GRPR blocking), pancreas uptake, blocked group, excess unlabeled NOTA-PEG2-RM26 (5 nmol)", "result": "0.3 ± 0.2", "unit": "%ID/g"}, {"measurement": "tissue uptake at 1 h", "setting": "[3]; [10]", "result": "1.1 ± 0.6", "unit": "%ID/g"}, {"measurement": "tissue uptake at 4 h", "setting": "[3]; [10]", "result": "0.3 ± 0.2", "unit": "%ID/g"}, {"measurement": "tissue uptake at 24 h", "setting": "[3]; [10]", "result": "0.03 ± 0.01", "unit": "%ID/g"}, {"measurement": "tissue uptake at 1 h", "setting": "[3]; spleen, 40 pmol, Spleen uptake", "result": "0.3 ± 0.2", "unit": "%ID/g"}, {"measurement": "tissue uptake at 4 h", "setting": "[3]; spleen, 40 pmol, Spleen uptake", "result": "0.22 ± 0.07", "unit": "%ID/g"}, {"measurement": "tissue uptake at 24 h", "setting": "[3]; spleen, 40 pmol, Spleen uptake", "result": "0.1 ± 0.03", "unit": "%ID/g"}, {"measurement": "Pancreas uptake", "setting": "[4]", "result": "2.23 ± 0.56", "unit": "%IA/g"}, {"measurement": "% intact radioligand in peripheral mice blood", "setting": "[5]; Entresto-treated group (NEP inhibition, per os)", "result": "91 ± 2", "unit": "%"}, {"measurement": "% intact radioligand in peripheral mice blood", "setting": "[5]; control (untreated) mice", "result": "88 ± 8", "unit": "%"}, {"measurement": "Radiochemical stability, % protein-associated activity, EDTA", "setting": "[6]; 1000× molar excess of EDTA", "result": "98.7 ± 0.3", "unit": "%"}, {"measurement": "Radiochemical stability, % protein-associated activity, PBS", "setting": "[6]; PBS control", "result": "100.0 ± 0.3", "unit": "%"}, {"measurement": "Radiochemical stability, % protein-associated activity, Serum", "setting": "[6]; human serum", "result": "99.2 ± 0.3", "unit": "%"}]}]}
